The text below walks through data of the NIST ThermoML archive (doi:10.1021/acs.jced.8b01099).

For data set [1] the following is noted: Crystal; DSC.
A short description of data set [2]: Molar enthalpy of transition or fusion. The following applies: Crystal; DSC.

Numbers after ± are expanded uncertainties.

For `CC(C)N1C(=O)N(c2ccccc2)CSC1=NC(C)(C)C` [buprofezin], in data set [1], the Triple point temperature is 377.95 ± 1.2 K. The “Molar enthalpy of transition or fusion” value in data set [2] is 7.18 ± 0.239 kcal/mol.
